Values quoted from earlier work in patent US20170095484A1, “METHOD OF TREATING RESISTANT NON-HODGKIN LYMPHOMA, MEDULLOBLASTOMA, AND/OR ALK+NON-SMALL CELL LUNG CANCER USING THIENOTRIAZOLODIAZEPINE COMPOUNDS” (ONCOETHIX GMBH, priority 2014, published 2017).

Assays:
mTOR = mTOR (Homo sapiens, UniProt P42345)
[1] = test system: Lyn, Syk, PKA, casein kinase I, ERK1, ERK2 and p38 kinase
[2] = molecular target: Bruton's tyrosine kinase (BTK) (Homo sapiens, UniProt Q06187); settings: in intact cells and in cell-free systems
Chain of Bruton's tyrosine kinase (BTK) (Q06187 whole entry, canonical isoform): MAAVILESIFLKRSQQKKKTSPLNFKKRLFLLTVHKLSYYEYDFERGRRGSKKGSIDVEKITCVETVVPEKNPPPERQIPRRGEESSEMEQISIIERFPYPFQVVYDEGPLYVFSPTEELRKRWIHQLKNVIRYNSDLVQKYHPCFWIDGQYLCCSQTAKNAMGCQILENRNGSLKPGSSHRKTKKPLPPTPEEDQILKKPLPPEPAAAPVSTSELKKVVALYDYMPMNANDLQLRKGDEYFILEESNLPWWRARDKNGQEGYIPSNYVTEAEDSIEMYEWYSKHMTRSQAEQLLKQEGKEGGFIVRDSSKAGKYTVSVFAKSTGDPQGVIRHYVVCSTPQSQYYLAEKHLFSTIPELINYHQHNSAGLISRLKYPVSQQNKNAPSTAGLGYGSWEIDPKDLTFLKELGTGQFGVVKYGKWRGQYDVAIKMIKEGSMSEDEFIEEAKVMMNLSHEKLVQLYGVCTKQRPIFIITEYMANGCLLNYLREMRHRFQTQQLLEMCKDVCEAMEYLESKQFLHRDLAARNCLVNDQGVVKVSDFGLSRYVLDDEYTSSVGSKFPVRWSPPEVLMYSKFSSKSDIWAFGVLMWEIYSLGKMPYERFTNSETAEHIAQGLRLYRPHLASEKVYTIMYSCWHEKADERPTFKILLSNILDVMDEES

HDAC = settings: isoform not stated

CO[C@H]1C[C@@H]2CC[C@@H](C)[C@@](O)(O2)C(=O)C(=O)N2CCCC[C@H]2C(=O)O[C@H]([C@H](C)C[C@@H]2CC[C@@H](OCCO)[C@H](OC)C2)CC(=O)[C@H](C)/C=C(\C)[C@@H](O)[C@@H](OC)C(=O)[C@H](C)C[C@H](C)/C=C/C=C/C=C/1C [Everolimus]
IC50 (mTOR): 1.6 to 2.4 nM

CC1=C(O)C(=O)[C@@H]2O[C@@H]2C1=O [Terreic acid]
effect on the activities of Lyn, Syk, PKA, casein kinase I, ERK1, ERK2 and p38 kinase [1]: little or no effect | effect on the catalytic activity of BTK [2]: Inhibits the catalytic activity of BTK | effect on the activity of PKC (PKC): without affecting the activity of PKC

Trichostatin A
IC50 (HDAC): ~1.8 nM
